Results published in patent publication EP4745135A1 (Gluetacs Therapeutics (Shanghai) Co., Ltd., priority 2023, dated 2025).

Assays:
IKZF3 = molecular target: T1, IKZF3 (Homo sapiens, UniProt Q96SW2+Q9UKT9); assay: Western blot, degradation of substrate protein in hPBMCs; assay type: cell-based
T1 construct: effects of the compounds of the present disclosure on the expression of target proteins in cells; endogenous in cells; host or cells: human PBMCs (Milecell Biotechnologies)

CK1α = molecular target: T2, CK1α (Homo sapiens, UniProt P48729+Q96SW2); assay: as above; assay type: cell-based
T2 construct: effects of the compounds of the present disclosure on the expression of target proteins in cells; endogenous in cells; host or cells: human PBMCs (Milecell Biotechnologies)

IKZF1 = molecular target: T3, IKZF1 (Homo sapiens, UniProt Q13422+Q96SW2); assay: as above; assay type: cell-based
T3 construct: effects of the compounds of the present disclosure on the expression of target proteins in cells; endogenous in cells; host or cells: human PBMCs (Milecell Biotechnologies)

WEE1 = molecular target: T4, WEE1 (Homo sapiens, UniProt P30291+Q96SW2); assay: as above; assay type: cell-based
T4 construct: effects of the compounds of the present disclosure on the expression of target proteins in cells; endogenous in cells; host or cells: human PBMCs (Milecell Biotechnologies)

IKZF2 = molecular target: T5, IKZF2 (Homo sapiens, UniProt Q96SW2+Q9UKS7); assay: as above; assay type: cell-based
T5 construct: effects of the compounds of the present disclosure on the expression of target proteins in cells; endogenous in cells; host or cells: human PBMCs (Milecell Biotechnologies)

GSPT1 = assay: as above; assay type: cell-based, Human
[1] = tested on: Human myeloid monocytic leukemia cell (MV-4-11); assay: Tumor cell proliferation inhibition (CellTiter-Meiluncell luminescent cell viability assay); settings: MV4-11, 96 h; for inhibition at 0.01 µM: read-out: Inhibition Rate at 10 nM (%); for inhibition at 0.5 µM: read-out: Inhibition Rate at 500 nM (%)
Procedure: The tumor cells used herein were cultured in a cell culture medium listed in table 2 at 37°C in an incubator with 5% CO2. Prior to experimentation, all cell lines used were correctly identified by STR profiling, and tested negative for mycoplasma contamination using a mycoplasma detection kit through routine screenings.
The IC50 values of the compounds of the present disclosure (including the compounds in Table 1 and Examples) were determined using the CellTiter-Meiluncell Luminescent Cell Viability Assay Kit from Dalian Meilun Biotech Co., Ltd. The detailed procedure is as follows: Tumor cells were seeded in 96-well cell culture plates at the densities specified in Table 3. On the following day, the test compounds of the present disclosure were subjected to serial dilution. The dilution can be performed according to one of the following two methods: • (1) The first dilution method: The test compounds of the present disclosure (including the compounds in Table 1 and Examples) were subjected to 5-fold serial dilutions starting from a highest concentration of 2000 µM, resulting in a total of 9 concentrations from high to low (2000, 400, 80, 16, 3.2, 0.64, 0.128, 0.0256, 0.00512 µM). Subsequently, 0.5 µL of the test compound dilution was transferred into the 96-well plate containing the cells, with each well containing 100 µL of cell culture medium. […] Into the 96-well plate, the diluted test compounds and corresponding detection reagents were added, resulting in final test compound concentrations of 500 nM and 10 nM, respectively. The experimental procedure is described below using the diluted 2 µM test compound as an example.
0.5 µL of the aforementioned diluted compound of the present disclosure (including the compounds in Table 1 and Examples) was added to the seeded cells in 100 µL of medium, yielding a final test compound concentration of 10 nM. After the cells were treated with the compounds of the present disclosure for a specified period, the cell viability assay reagent was added to the culture medium according to the kit's instructions to determine cell viability. […] All controls were treated using the same procedure as the compounds of the present disclosure. The growth inhibition curves for the compounds of the present disclosure were plotted using Prism GraphPad software, and the IC50 values were calculated therefrom.

[2] = molecular target: T6, human Cereblon WT GST-tagged protein (Homo sapiens, UniProt Q96SW2); assay: CRBN-binding affinity, HTRF (CEREBLON BINDING kit); settings: for inhibition at 0.5 µM: read-out: Inhibition Rate at 0.5 µM (%); for inhibition at 2 µM: read-out: Inhibition Rate at 2 µM (%)
T6 construct: purchased CISBIO 64BDCRBNPEH

[3] = 24 hours treatment, compounds at 50 nM and 500 nM (concentration behind the class not stated)
[4] = Western blot, 24 hours of compound treatment, compounds tested at 50 nM and 500 nM (concentration for the table not stated)

T3 sequence (Q13422 whole entry): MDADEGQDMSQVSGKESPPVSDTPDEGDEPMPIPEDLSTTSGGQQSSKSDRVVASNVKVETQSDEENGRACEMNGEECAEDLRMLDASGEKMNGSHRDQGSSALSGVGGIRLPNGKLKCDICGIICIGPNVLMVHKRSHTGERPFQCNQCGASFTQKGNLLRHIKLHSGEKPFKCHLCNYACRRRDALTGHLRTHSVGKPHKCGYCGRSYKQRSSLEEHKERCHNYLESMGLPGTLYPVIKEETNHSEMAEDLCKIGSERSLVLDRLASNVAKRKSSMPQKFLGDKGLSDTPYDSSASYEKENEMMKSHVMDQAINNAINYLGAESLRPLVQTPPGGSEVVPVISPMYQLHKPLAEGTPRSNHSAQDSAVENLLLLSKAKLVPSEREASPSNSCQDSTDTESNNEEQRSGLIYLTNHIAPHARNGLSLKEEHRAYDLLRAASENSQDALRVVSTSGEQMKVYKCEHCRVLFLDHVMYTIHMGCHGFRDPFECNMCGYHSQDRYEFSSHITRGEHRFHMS
T3 sequence (Q96SW2 whole entry): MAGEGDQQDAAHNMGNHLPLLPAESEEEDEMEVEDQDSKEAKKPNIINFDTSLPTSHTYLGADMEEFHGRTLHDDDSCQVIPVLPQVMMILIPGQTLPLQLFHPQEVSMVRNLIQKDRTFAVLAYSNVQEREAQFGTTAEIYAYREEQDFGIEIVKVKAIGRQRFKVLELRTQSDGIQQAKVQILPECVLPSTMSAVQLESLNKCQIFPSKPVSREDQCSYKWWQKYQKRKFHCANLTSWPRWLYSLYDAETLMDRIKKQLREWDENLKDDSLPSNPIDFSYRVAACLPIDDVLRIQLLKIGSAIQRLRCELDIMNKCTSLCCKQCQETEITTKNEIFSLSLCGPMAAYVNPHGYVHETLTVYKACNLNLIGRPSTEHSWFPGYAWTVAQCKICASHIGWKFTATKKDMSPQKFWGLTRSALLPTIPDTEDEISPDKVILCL
T3 sequence (Q16531 whole entry partner): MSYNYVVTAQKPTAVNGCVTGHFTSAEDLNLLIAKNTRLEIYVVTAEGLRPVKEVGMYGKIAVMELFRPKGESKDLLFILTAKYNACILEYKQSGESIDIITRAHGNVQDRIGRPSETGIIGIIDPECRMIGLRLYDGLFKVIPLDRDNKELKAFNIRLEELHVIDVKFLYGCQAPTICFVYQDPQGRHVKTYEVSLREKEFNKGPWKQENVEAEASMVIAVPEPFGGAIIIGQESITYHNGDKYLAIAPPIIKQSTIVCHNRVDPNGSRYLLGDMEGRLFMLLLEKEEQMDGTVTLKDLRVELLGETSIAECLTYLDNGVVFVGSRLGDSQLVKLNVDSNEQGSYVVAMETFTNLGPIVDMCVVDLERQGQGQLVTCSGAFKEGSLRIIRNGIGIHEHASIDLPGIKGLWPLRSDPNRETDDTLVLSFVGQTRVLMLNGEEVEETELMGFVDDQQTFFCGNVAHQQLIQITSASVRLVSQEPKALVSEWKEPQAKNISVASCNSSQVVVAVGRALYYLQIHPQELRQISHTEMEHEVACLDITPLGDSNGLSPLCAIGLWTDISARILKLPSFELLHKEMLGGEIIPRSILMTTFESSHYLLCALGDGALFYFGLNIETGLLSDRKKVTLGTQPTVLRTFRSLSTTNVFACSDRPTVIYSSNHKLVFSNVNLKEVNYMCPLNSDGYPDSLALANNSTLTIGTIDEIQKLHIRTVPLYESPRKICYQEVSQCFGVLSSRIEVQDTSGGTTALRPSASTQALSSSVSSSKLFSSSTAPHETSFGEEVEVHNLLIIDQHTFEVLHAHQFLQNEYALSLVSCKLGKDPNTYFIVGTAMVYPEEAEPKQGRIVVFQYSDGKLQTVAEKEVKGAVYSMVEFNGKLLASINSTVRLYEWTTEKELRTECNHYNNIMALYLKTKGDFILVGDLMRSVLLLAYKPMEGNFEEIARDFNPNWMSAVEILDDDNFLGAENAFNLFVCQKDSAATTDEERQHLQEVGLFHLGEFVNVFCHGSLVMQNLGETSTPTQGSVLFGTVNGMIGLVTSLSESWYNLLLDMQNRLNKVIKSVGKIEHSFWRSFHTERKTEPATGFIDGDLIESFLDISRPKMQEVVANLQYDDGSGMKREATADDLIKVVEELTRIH
T6 sequence (Q96SW2 whole entry): as the sequence (Q96SW2 whole entry) above
T1 sequence (Q9UKT9 whole entry): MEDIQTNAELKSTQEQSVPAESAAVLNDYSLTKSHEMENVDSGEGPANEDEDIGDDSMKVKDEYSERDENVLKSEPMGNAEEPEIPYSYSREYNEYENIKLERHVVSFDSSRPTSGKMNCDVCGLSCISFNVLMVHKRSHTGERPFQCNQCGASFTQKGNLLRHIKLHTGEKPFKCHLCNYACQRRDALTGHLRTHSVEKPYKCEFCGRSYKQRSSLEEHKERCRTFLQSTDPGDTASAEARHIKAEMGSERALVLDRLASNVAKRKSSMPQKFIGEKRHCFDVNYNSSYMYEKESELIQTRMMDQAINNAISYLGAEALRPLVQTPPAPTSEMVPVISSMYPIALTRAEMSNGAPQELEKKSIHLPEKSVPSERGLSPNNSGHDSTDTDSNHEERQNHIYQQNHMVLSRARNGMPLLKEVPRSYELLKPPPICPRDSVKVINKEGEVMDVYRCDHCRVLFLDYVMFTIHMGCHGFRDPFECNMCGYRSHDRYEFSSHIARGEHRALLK
T1 sequence (Q96SW2 whole entry): as the sequence (Q96SW2 whole entry) above
T1 sequence (Q16531 whole entry partner): as the sequence (Q16531 whole entry partner) above
T5 sequence (Q9UKS7 whole entry): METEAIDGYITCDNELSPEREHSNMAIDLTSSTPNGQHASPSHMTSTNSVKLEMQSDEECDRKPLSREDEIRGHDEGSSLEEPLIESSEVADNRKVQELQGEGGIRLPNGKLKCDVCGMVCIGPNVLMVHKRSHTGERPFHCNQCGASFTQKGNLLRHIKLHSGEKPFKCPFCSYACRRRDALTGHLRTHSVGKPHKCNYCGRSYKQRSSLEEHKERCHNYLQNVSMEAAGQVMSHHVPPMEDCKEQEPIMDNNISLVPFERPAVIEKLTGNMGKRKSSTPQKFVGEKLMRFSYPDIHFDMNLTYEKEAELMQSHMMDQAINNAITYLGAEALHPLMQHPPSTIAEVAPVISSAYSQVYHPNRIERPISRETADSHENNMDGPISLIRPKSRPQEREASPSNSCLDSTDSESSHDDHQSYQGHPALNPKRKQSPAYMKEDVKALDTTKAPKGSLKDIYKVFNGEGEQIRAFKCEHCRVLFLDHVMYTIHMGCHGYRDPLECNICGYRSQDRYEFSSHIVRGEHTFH
T5 sequence (Q96SW2 whole entry): as the sequence (Q96SW2 whole entry) above
T5 sequence (Q16531 whole entry partner): as the sequence (Q16531 whole entry partner) above
T2 sequence (P48729 whole entry): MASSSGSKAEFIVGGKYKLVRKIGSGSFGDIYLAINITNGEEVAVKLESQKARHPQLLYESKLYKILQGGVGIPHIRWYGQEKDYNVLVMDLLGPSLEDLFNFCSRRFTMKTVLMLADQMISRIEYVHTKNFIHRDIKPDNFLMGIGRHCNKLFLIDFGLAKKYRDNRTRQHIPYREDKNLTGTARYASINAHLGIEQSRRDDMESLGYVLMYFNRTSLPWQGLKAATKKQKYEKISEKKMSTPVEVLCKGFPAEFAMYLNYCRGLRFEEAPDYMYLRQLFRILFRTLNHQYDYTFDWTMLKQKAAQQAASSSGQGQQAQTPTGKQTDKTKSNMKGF
T2 sequence (Q96SW2 whole entry): as the sequence (Q96SW2 whole entry) above
T2 sequence (Q16531 whole entry partner): as the sequence (Q16531 whole entry partner) above
T4 sequence (P30291 whole entry): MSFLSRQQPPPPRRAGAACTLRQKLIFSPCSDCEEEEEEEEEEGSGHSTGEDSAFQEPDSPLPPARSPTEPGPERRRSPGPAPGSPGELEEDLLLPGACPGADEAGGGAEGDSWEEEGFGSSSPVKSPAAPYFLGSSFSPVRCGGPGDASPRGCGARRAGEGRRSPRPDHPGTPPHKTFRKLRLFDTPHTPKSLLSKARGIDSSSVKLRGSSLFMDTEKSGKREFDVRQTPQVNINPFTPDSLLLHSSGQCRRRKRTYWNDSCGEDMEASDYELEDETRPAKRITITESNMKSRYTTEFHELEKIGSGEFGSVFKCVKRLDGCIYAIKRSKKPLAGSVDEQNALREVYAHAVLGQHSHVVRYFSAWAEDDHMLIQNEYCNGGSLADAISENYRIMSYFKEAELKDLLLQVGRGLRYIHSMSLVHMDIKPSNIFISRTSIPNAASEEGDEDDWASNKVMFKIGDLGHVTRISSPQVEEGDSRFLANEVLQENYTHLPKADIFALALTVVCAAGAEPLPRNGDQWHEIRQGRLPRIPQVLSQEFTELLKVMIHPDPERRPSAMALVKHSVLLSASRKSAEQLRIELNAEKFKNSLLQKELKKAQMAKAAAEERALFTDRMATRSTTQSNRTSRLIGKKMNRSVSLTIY
T4 sequence (Q96SW2 whole entry): as the sequence (Q96SW2 whole entry) above
T4 sequence (Q16531 whole entry partner): as the sequence (Q16531 whole entry partner) above

Row | SMILES | IKZF3 substrate protein remaining % (IKZF3; [3]) | CK1α substrate protein remaining % (CK1α; [3]) | IKZF 1 substrate protein remaining % (IKZF1; [3]) | Wee1 substrate protein remaining % (WEE1; [3]) | IKZF2 substrate protein remaining % (IKZF2; [3]) | GSPT1 substrate protein remaining % (GSPT1; [3]) | inhibition at 0.01 µM [1] [%] | inhibition at 0.5 µM [1] [%] | inhibition at 0.5 µM [2] [%] | inhibition at 2 µM [2] [%] | IKZF3 substrate protein remaining % (IKZF3; [4]) | CK1α substrate protein remaining % (CK1α; [4]) | IKZF 1 substrate protein remaining % (IKZF1; [4]) | Wee1 substrate protein remaining % (WEE1; [4]) | IKZF2 substrate protein remaining % (IKZF2; [4]) | GSPT1 substrate protein remaining % (GSPT1; [4])
1 | O=C1CCC(N2Cc3c(CN4CCC(c5ccco5)CC4)cccc3C2=S)C(=O)N1 (stereo not drawn) [GT-08310, 3-(4-((4-(furan-2-yl)piperidin-1-yl)methyl)-1-thioxoisoindolin-2-yl)piperidine-2,6-dione] | B (80%< substrate protein remaining %≤ 100%) | B (80%< substrate protein remaining %≤ 100%) | B (80%< substrate protein remaining %≤ 100%) | A (0% ≤ substrate protein remaining % ≤ 80%) | B (80%< substrate protein remaining %≤ 100%) | B (80%< substrate protein remaining %≤ 100%) | 40 to 60 | 60 to 80 | 30 to 40 | 60 to 80 |  |  |  |  |  | 
2 | Cc1ccsc1C1CCN(Cc2cccc3c2CN(C2CCC(=O)NC2=O)C3=S)CC1 (stereo not drawn) [GT-08314, 3-(4-((4-(3-methylthiophen-2-yl)piperidin-1-yl)methyl)-1-thioxoisoindolin-2-yl)piperidine-2,6-dione] | B (80%< substrate protein remaining %≤ 100%) | B (80%< substrate protein remaining %≤ 100%) | B (80%< substrate protein remaining %≤ 100%) | A (0% ≤ substrate protein remaining % ≤ 80%) | B (80%< substrate protein remaining %≤ 100%) | B (80%< substrate protein remaining %≤ 100%) | 40 to 60 | 60 to 80 | 40 to 53 | 60 to 80 |  |  |  |  |  | 
3 | Cc1cc(C2CCN(Cc3cccc4c3CN(C3CCC(=O)NC3=O)C4=S)CC2)cs1 (stereo not drawn) [GT-08316, 3-(4-((4-(5-methylthiophen-3-yl)piperidin-1-yl)methyl)-1-thioxoisoindolin-2-yl)piperidine-2,6-dione] | B (80%< substrate protein remaining %≤ 100%) | B (80%< substrate protein remaining %≤ 100%) | B (80%< substrate protein remaining %≤ 100%) | A (0% ≤ substrate protein remaining % ≤ 80%) | B (80%< substrate protein remaining %≤ 100%) | B (80%< substrate protein remaining %≤ 100%) | 18 to 25 | 40 to 60 | 40 to 53 | 60 to 80 |  |  |  |  |  | 
4 | O=C1CCC(N2Cc3c(CN4CCC(c5c[nH]c6cc(F)ccc56)CC4)cccc3C2=S)C(=O)N1 (stereo not drawn) [GT-08492, 3-(4-((4-(6-fluoro-1H-indol-3-yl)piperidin-1-yl)methyl)-1-thioxoisoindolin-2-yl)piperidine-2,6-dione] |  |  |  |  |  |  | 30 to 40 | 40 to 60 | 60 to 80 | 80 to 100 | B (80%< substrate protein remaining %≤ 100%) | B (80%< substrate protein remaining %≤ 100%) | B (80%< substrate protein remaining %≤ 100%) | A (0% ≤ substrate protein remaining % ≤ 80%) | B (80%< substrate protein remaining %≤ 100%) | B (80%< substrate protein remaining %≤ 100%)
5 | O=C1CCC(N2Cc3c(CN4CCN(c5ccc(Cl)cc5Cl)CC4)cccc3C2=S)C(=O)N1 (stereo not drawn) [GT-08500, 3-(4-((4-(2,4-dichlorophenyl)piperazin-1-yl)methyl)-1-thioxoisoindolin-2-yl)piperidine-2,6-dione] |  |  |  |  |  |  | 30 to 40 | 40 to 60 | 40 to 53 | 60 to 80 | B (80%< substrate protein remaining %≤ 100%) | B (80%< substrate protein remaining %≤ 100%) | B (80%< substrate protein remaining %≤ 100%) | A (0% ≤ substrate protein remaining % ≤ 80%) | B (80%< substrate protein remaining %≤ 100%) | A (0% ≤ substrate protein remaining % ≤ 80%)
6 | O=C1CCC(N2Cc3c(CN4CCN(c5ncnc6ccsc56)CC4)cccc3C2=S)C(=O)N1 (stereo not drawn) [GT-08970, 3-(4-((4-(thieno[3,2-d]pyrimidin-4-yl)piperazin-1-yl)methyl)-1-thioxoisoindolin-2-yl)piperidine-2,6-dione] | B (80%< substrate protein remaining %≤ 100%) | B (80%< substrate protein remaining %≤ 100%) | B (80%< substrate protein remaining %≤ 100%) | A (0% ≤ substrate protein remaining % ≤ 80%) | B (80%< substrate protein remaining %≤ 100%) | B (80%< substrate protein remaining %≤ 100%) | 18 to 25 | 40 to 60 | 60 to 80 | 80 to 100 |  |  |  |  |  | 
7 | Cc1cccc(N2CCN(Cc3ccc4c(c3)CN(C3CCC(=O)NC3=O)C4=S)CC2)n1 (stereo not drawn) [GT-09214, 3-(5-((4-(6-methylpyridin-2-yl)piperazin-1-yl)methyl)-1-thioxoisoindolin-2-yl)piperidine-2,6-dione] |  |  |  |  |  |  | 10 to 18 | 40 to 60 | 60 to 80 | 80 to 100 | B (80%< substrate protein remaining %≤ 100%) | B (80%< substrate protein remaining %≤ 100%) | B (80%< substrate protein remaining %≤ 100%) | B (80%< substrate protein remaining %≤ 100%) | B (80%< substrate protein remaining %≤ 100%) | A (0% ≤ substrate protein remaining % ≤ 80%)
8 | O=C1CCC(N2Cc3cc(CN4CCN(c5ncccc5F)CC4)ccc3C2=S)C(=O)N1 (stereo not drawn) [GT-09220, 3-(5-((4-(3-fluoropyridin-2-yl)piperazin-1-yl)methyl)-1-thioxoisoindolin-2-yl)piperidine-2,6-dione] |  |  |  |  |  |  | 30 to 40 | 40 to 60 | 60 to 80 | 80 to 100 | B (80%< substrate protein remaining %≤ 100%) | B (80%< substrate protein remaining %≤ 100%) | A (0% ≤ substrate protein remaining % ≤ 80%) | A (0% ≤ substrate protein remaining % ≤ 80%) | A (0% ≤ substrate protein remaining % ≤ 80%) | B (80%< substrate protein remaining %≤ 100%)
9 | O=C1CCC(N2Cc3cc(CN4CCN(c5cccc(C(F)(F)F)n5)CC4)ccc3C2=S)C(=O)N1 (stereo not drawn) [GT-09224, 3-(1-thioxo-5-((4-(6-(trifluoromethyl)pyridin-2-yl)piperazin-1-yl)methyl)isoindolin-2-yl)piperidine-2,6-dione] |  |  |  |  |  |  | -5 to 0 | 40 to 60 | 60 to 80 | 80 to 100 | A (0% ≤ substrate protein remaining % ≤ 80%) | A (0% ≤ substrate protein remaining % ≤ 80%) | B (80%< substrate protein remaining %≤ 100%) | B (80%< substrate protein remaining %≤ 100%) | B (80%< substrate protein remaining %≤ 100%) | A (0% ≤ substrate protein remaining % ≤ 80%)
